We go through 24 compounds from patent US20130029962A1, “Substituted Heteroaromatic Pyrazole-Containing Carboxamide and Urea Compounds as Vanilloid Receptor Ligands” (Gruenenthal GmbH, priority 2011, published 2013).

The test addresses T1, vanilloid receptor 1 (VR1/TRPV1 receptor) (Homo sapiens, UniProt Q8NER1).
T1 construct: expressed in transfected cells; host or cells: CHO K1
The experiment in a line: Functional testing on the vanilloid receptor 1 (VR1/TRPV1): FLIPR Ca2+ influx assay, displacement of capsaicin. As to conditions: for inhibition at 5 µM: 5 μM compound, read-out: inhibition (as a percentage) at the concentration after @, Cap; for inhibition at 5 µM / mode of action at VR1/TRPV1 (AG, pAG, NE), Cap: capsaicin (Cap), human being; for Ki: capsaicin (Cap) as stimulus, Ki from IC50 by Cheng-Prusoff, read-out: (f) Ki (human being) [nM] Cap. The arrangement: key to mode of action at VR1/TRPV1 (AG, pAG, NE), Cap: AG=agonist; NE=no effect; pAG=partial agonist. Type of test: cell-based, human being. Here is the method: Furthermore, preference may be given to compounds according to the invention that cause a 50 percent displacement of capsaicin, which is present at a concentration of 100 nM, in a FLIPR assay with CHO K1 cells which were transfected with the human VR1 gene at a concentration of less than 2,000 nM, preferably less than 1,000 nM, particularly preferably less than 300 nM, most particularly preferably less than 100 nM, even more preferably less than 75 nM, additionally preferably less than 50 nM, most preferably less than 10 nM.
In the process, the Ca^2+ influx is quantified in the FLIPR assay with the aid of a Ca^2+-sensitive dye (type Fluo-4, Molecular Probes Europe BV, Leiden, the Netherlands) in a fluorescent imaging plate reader (FLIPR, Molecular Devices, Sunnyvale, USA), as described hereinafter. […]
The number of cells in the suspension is set to 3×10^5 per mL and 150 μL of this suspension are in each case introduced into a recess in the cell culture plates coated as described hereinbefore. In the incubator the plates are left for two to three days at 37° C., 5% by volume of CO2 and 95% relative humidity. Subsequently, the cells are loaded with 2 μM of Fluo-4 and 0.01% by volume of Pluronic F127 (Molecular Probes Europe BV, Leiden, the Netherlands) in HBSS buffer (Hank's buffered saline solution, Gibco Invitrogen GmbH, Karlsruhe, Germany) for 30 min at 37° C., washed 3 times with HBSS buffer and after further incubation for 15 minutes at room temperature used for Ca^2+ measurement in a FLIPR assay. The Ca^2+-dependent fluorescence is in this case measured before and after the addition of substances (λex=488 nm, λem=540 nm). Quantification is carried out by measuring the highest fluorescence intensity (FC, fluorescence counts) over time.
The FLIPR protocol consists of 2 substance additions. First the compounds to be tested (10 μM) are pipetted onto the cells and the Ca^2+ influx is compared with the control (capsaicin 10 μM). This provides the result in % activation based on the Ca^2+ signal after the addition of 10 μM of capsaicin (CP). After 5 minutes' incubation, 100 nM of capsaicin are applied and the Ca^2+ influx is also determined. Desensitising agonists and antagonists lead to suppression of the Ca^2+ influx. The % inhibition is calculated compared to the maximum achievable inhibition with 10 μM of capsazepine. Triple analyses (n=3) are carried out and repeated in at least 3 independent experiments (N=4).
Starting from the percentage displacement caused by different concentrations of the compounds to be tested of general formula I, IC50 inhibitory concentrations which cause a 50-percent displacement of capsaicin were calculated. Ki values for the test substances were obtained by conversion by means of the Cheng-Prusoff equation (Cheng, Prusoff; Biochem. Pharmacol. 22, 3099-3108, 1973).
The affinity of the compounds according to the invention for the vanilloid receptor 1 (VR1/TRPV1 receptor) was determined as described above (pharmacological method I).

One may read the Ki as a dissociation constant, usually derived from enzyme kinetics or from competition with a known ligand.

T1 sequence (Q8NER1 whole entry): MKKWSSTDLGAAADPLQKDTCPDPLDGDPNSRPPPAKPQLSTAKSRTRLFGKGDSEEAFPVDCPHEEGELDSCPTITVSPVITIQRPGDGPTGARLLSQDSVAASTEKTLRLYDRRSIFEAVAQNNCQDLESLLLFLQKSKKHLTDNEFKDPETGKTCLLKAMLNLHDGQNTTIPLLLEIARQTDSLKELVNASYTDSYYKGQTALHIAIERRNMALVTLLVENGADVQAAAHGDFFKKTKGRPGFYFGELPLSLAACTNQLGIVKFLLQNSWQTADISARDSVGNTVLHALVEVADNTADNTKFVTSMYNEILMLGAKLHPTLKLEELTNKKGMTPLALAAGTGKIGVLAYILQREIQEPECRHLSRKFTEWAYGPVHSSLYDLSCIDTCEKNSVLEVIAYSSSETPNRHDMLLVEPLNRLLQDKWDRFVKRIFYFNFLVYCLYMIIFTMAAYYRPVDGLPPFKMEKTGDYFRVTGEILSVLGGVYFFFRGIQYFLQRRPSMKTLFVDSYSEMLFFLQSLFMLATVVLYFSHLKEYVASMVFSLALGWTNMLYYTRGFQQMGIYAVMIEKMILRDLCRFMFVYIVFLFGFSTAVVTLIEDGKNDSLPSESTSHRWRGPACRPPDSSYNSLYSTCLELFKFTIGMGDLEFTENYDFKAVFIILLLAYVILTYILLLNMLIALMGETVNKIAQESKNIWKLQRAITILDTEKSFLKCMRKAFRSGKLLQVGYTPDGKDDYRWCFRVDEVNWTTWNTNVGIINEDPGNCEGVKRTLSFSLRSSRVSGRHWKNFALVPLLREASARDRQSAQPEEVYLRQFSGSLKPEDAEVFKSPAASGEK

On to `COCCNc1ccc(NC(=O)NCc2cc(C(C)(C)C)nn2-c2cccc(Cl)c2)cn1` [Example 68, 1-((3-tert-butyl-1-(3-chlorophenyl)-1H-pyrazol-5-yl)methyl)-3-(6-(2-methoxyethylamino)pyridin-3-yl)urea], for which the inhibition at 5 µM amounted to 73% and the “mode of action at VR1/TRPV1 (AG, pAG, NE), Cap” value is recorded as “AG”.

`COCCNc1ccc(NC(=O)NCc2cc(C(F)(F)F)nn2-c2cccc(Cl)c2)cn1` [Example 69, 1-((1-(3-chlorophenyl)-3-(trifluoromethyl)-1H-pyrazol-5-yl)methyl)-3-(6-(2-methoxyethylamino)pyridin-3-yl)urea]: the Ki is 51 nM. For the compound `CC(C)(C)c1cc(CNC(=O)Nc2ccc(NCCO)nc2)n(-c2cccc(Cl)c2)n1` [Example 70, 1-((3-tert-butyl-1-(3-chlorophenyl)-1H-pyrazol-5-yl)methyl)-3-(6-(2-hydroxyethylamino)pyridin-3-yl)urea], the Ki amounted to 3 nM. As for `O=C(NCc1cc(C(F)(F)F)nn1-c1cccc(Cl)c1)Nc1ccc(NCCO)nc1` [Example 71, 1-((1-(3-chlorophenyl)-3-(trifluoromethyl)-1H-pyrazol-5-yl)methyl)-3-(6-(2-hydroxyethylamino)pyridin-3-yl)urea], the Ki came out at 8 nM. `O=C(NCc1cc(C2CC2)nn1-c1cccc(Cl)c1)Nc1ccc(NCCO)nc1` [Example 72, 1-((1-(3-chlorophenyl)-3-cyclopropyl-1H-pyrazol-5-yl)methyl)-3-(6-(2-hydroxyethylamino)pyridin-3-yl)urea]: the Ki worked out at 17 nM. Turning to `O=C(NCc1cc(C(F)(F)F)nn1-c1ccc(F)c(F)c1)Nc1ccc(NCCO)nc1` [Example 79, 1-((1-(3,4-difluorophenyl)-3-(trifluoromethyl)-1H-pyrazol-5-yl)methyl)-3-(6-(2-hydroxyethylamino)pyridin-3-yl)urea], the Ki stood at 26 nM. Same read-out and setting: the result for `Cc1cccc(-n2nc(C(F)(F)F)cc2CNC(=O)Nc2ccc(NCCO)nc2)c1` [Example 81, 1-(6-(2-hydroxyethylamino)pyridin-3-yl)-3-((1-m-tolyl-3-(trifluoromethyl)-1H-pyrazol-5-yl)methyl)urea] reads 12 nM; that for `CN(CCO)c1ccc(NC(=O)NCc2cc(C(C)(C)C)nn2-c2cccc(Cl)c2)cn1` [Example 87, 1-((3-tert-butyl-1-(3-chlorophenyl)-1H-pyrazol-5-yl)methyl)-3-(6-((2-hydroxyethyl)(methyl)amino)pyridin-3-yl)urea], 17 nM. `COCCN(C)c1ccc(C(C)C(=O)NCc2cc(C(F)(F)F)nn2-c2cccc(Cl)c2)cn1` (centres unmarked) [Example 88, N-((1-(3-chlorophenyl)-3-(trifluoromethyl)-1H-pyrazol-5-yl)methyl)-2-(6-((2-methoxyethyl)(methyl)amino)pyridin-3-yl)propanamide]: the inhibition at 5 µM was determined as 55%.

As to `COCCN(C)c1ccc(NC(=O)NCc2cc(C(F)(F)F)nn2-c2cccc(Cl)c2)cn1` [Example 89, 1-((1-(3-chlorophenyl)-3-(trifluoromethyl)-1H-pyrazol-5-yl)methyl)-3-(6-((2-methoxyethyl)(methyl)amino)pyridin-3-yl)urea], the inhibition at 5 µM came out at 31%. On to `CN(CCO)c1ccc(NC(=O)NCc2cc(C(F)(F)F)nn2-c2cccc(Cl)c2)cn1` [Example 90, 1-((1-(3-chlorophenyl)-3-(trifluoromethyl)-1H-pyrazol-5-yl)methyl)-3-(6-((2-hydroxyethyl)(methyl)amino)pyridin-3-yl)urea], for which the Ki was determined as 44 nM. Regarding `CC(C(=O)NCc1cc(C(C)(C)C)nn1-c1cccc(Cl)c1)c1ccc(NC(=O)c2ccccc2)nc1` (centres unmarked) [Example 91, N-(5-(1-((3-tert-butyl-1-(3-chlorophenyl)-1H-pyrazol-5-yl)methylamino)-1-oxopropan-2-yl)pyridin-2-yl)benzamide], the inhibition at 5 µM was 98% and the “mode of action at VR1/TRPV1 (AG, pAG, NE), Cap” value is on record as “AG”. For `CC(C(=O)NCc1cc(C(F)(F)F)nn1-c1cccc(Cl)c1)c1ccc(NC(=O)c2ccccc2)nc1` (centres unmarked) [Example 92, N-(5-(1-((1-(3-chlorophenyl)-3-(trifluoromethyl)-1H-pyrazol-5-yl)methylamino)-1-oxopropan-2-yl)pyridin-2-yl)benzamide], the Ki was found to be 26 nM. The same measure, in the same setting: the result for `CC(C(=O)NCc1cc(C(C)(C)C)nn1-c1cccc(Cl)c1)c1ccc(NC(=O)c2ccc(F)cc2)nc1` (centres unmarked) [Example 93, N-(5-(1-((3-tert-butyl-1-(3-chlorophenyl)-1H-pyrazol-5-yl)methylamino)-1-oxopropan-2-yl)pyridin-2-yl)-4-fluorobenzamide] reads 2 nM; that for `CC(C(=O)NCc1cc(C(F)(F)F)nn1-c1cccc(Cl)c1)c1ccc(NC(=O)c2ccc(F)cc2)nc1` (centres unmarked) [Example 94, N-(5-(1-((1-(3-chlorophenyl)-3-(trifluoromethyl)-1H-pyrazol-5-yl)methylamino)-1-oxopropan-2-yl)pyridin-2-yl)-4-fluorobenzamide], 4 nM; that for `CC(C(=O)NCc1cc(C(C)(C)C)nn1-c1cccc(Cl)c1)c1ccc(NC(=O)c2ccc(Cl)cc2)nc1` (centres unmarked) [Example 95, N-(5-(1-((3-tert-butyl-1-(3-chlorophenyl)-1H-pyrazol-5-yl)methylamino)-1-oxopropan-2-yl)pyridin-2-yl)-4-chlorobenzamide], 2 nM. As for `CC(C(=O)NCc1cc(C(F)(F)F)nn1-c1cccc(Cl)c1)c1ccc(NC(=O)c2ccc(Cl)cc2)nc1` (centres unmarked) [Example 96, 4-chloro-N-(5-(1-((1-(3-chlorophenyl)-3-(trifluoromethyl)-1H-pyrazol-5-yl)methylamino)-1-oxopropan-2-yl)pyridin-2-yl)benzamide], the Ki is 3 nM. On the same count and under the same terms, the result for `CC(C(=O)NCc1cc(C(C)(C)C)nn1-c1cccc(Cl)c1)c1ccc(NS(C)(=O)=O)nc1` (centres unmarked) [Example 98, N-((3-tert-butyl-1-(3-chlorophenyl)-1H-pyrazol-5-yl)methyl)-2-(6-(methylsulfonamido)pyridin-3-yl)propanamide] reads 8 nM; that for `CC(C(=O)NCc1cc(C(F)(F)F)nn1-c1cccc(Cl)c1)c1ccc(NS(C)(=O)=O)nc1` (centres unmarked) [Example 99, N-((1-(3-chlorophenyl)-3-(trifluoromethyl)-1H-pyrazol-5-yl)methyl)-2-(6-(methylsulfonamido)pyridin-3-yl)propanamide], 11 nM; that for `CC(C(=O)NCc1cc(C(F)(F)F)nn1-c1cccc(F)c1)c1ccc(NS(C)(=O)=O)nc1` (centres unmarked) [Example 100, N-((1-(3-fluorophenyl)-3-(trifluoromethyl)-1H-pyrazol-5-yl)methyl)-2-(6-(methylsulfonamido)pyridin-3-yl)propanamide], 37 nM. With `CS(=O)(=O)Nc1ccc(NC(=O)NCc2cc(C(F)(F)F)nn2-c2cccc(Cl)c2)cn1` [Example 101, N-(5-(3-((1-(3-chlorophenyl)-3-(trifluoromethyl)-1H-pyrazol-5-yl)methyl)ureido)pyridin-2-yl)methanesulfonamide], the inhibition at 5 µM stood at 30%. Take `CC(C(=O)NCc1cc(C(C)(C)C)nn1-c1cccc(Cl)c1)c1cnc(NS(C)(=O)=O)c(F)c1` (centres unmarked) [Example 102, N-((3-tert-butyl-1-(3-chlorophenyl)-1H-pyrazol-5-yl)methyl)-2-(5-fluoro-6-(methylsulfonamido)pyridin-3-yl)propanamide]: the Ki is 8 nM. Consider `CC(C(=O)NCc1cc(C(F)(F)F)nn1-c1cccc(Cl)c1)c1cnc(NS(C)(=O)=O)c(F)c1` (centres unmarked) [Example 103, N-((1-(3-chlorophenyl)-3-(trifluoromethyl)-1H-pyrazol-5-yl)methyl)-2-(5-fluoro-6-(methylsulfonamido)pyridin-3-yl)propanamide], for which the Ki amounted to 12 nM. Same read-out and setting: then `COc1cc(C(C)C(=O)NCc2cc(C(F)(F)F)nn2-c2cccc(Cl)c2)cnc1NS(C)(=O)=O` (centres unmarked) [Example 104, N-((1-(3-chlorophenyl)-3-(trifluoromethyl)-1H-pyrazol-5-yl)methyl)-2-(5-methoxy-6-(methylsulfonamido)pyridin-3-yl)propanamide], with 3 nM.
